Data on three compounds can be found in patent publication US10731164B2, “Aptamer conjugates with N-heterocyclic carbene metal complexes for targeted drug delivery” (University of Florida Research Foundation, Inc., priority 2014, dated 2020).

Data set [1] relates to cervical carcinoma (HeLa) cells. The conditions noted are these: background; cited from earlier work.
For data set [2], the system named is cis-platin resistant cancer cells. The conditions noted are these: background; cited from earlier work.
In a further data set the test system is CCRF-CEM cell line. Put plainly: MTS cell viability assay, CCRF-CEM cell line. The class given is cell-based. The conditions noted are these: 4 h incubation then 48 h. The procedure:
All cell lines used in this research were cultured in American Type Culture Collection recommended medium, with 10% fetal bovine serum (Invitrogen, Carlsbad, Calif.) and 0.5 mg/mL penicillin-streptomycin (American Type Culture Collection) at 37° C. under a 5% CO2 atmosphere. CCRF-CEM (T-cell line) and K562 ([…]) were cultured in RPMI 1640 medium; MDA-MB-231 (breast cancer cells were cultured in L-15 medium; DU145 (prostate cancer cell) was cultured in EMEM medium; Hela (cervical cancer cell), HEK293 (human kidney cell) and HU1545v (human untransformed liver cell) were cultured in DMEM medium. Cells were washed before and after incubation with washing buffer [4.5 g/L glucose and 5 mM MgCl2 in Dulbecco's PBS with calcium chloride and magnesium chloride (Sigma-Aldrich)]. Binding buffer was prepared by adding yeast tRNA (0.1 mg/mL; Sigma-Aldrich) and BSA (1 mg/mL; Fisher Scientific) to the washing buffer to reduce background binding. All reagents for buffer preparation and HPLC purification came from Fisher Scientific. […]
A cell viability assay to measure the cytotoxicity of the aptamer-drug conjugate 21 and aptamer-ligand conjugate 28 were performed, as indicated in FIG. 13. […] The assay was allotted 2 h at 37° C. for development, and then the 490 nm absorbance of each well was collected on a Tecan plate 110 reader. […]

A further data set relates to CCRF-CEM cells. Put plainly: Flow cytometry analysis, CCRF-CEM cells. The class given is cell-based. To be noted: 250 nM, 2 h at 4° C. The protocol: Flow Cytometry Analysis was conducted as follows. Cells were plated in a 35 mm cell culture dish (Corning Incorporated, Corning, N.Y., USA) and grown to around 80% confluency for 24 h before the experiments. Cells were washed twice with 1 mL PBS and then incubated with the prepared aptamer-drug conjugate and LIB-drug conjugate at the concentration of 250 nM for 2 h at 4° C. After incubation, cells were washed with washing buffer three times, dispersed in 80 μL binding buffer, and finally subjected to flow cytometry analysis using a FACScan cytometer (Becton Dickinson Immunocytometry Systems, San Jose, Calif., USA). Fluorescence was determined by counting 30,000 events, and data were analyzed with FlowJo software.
Flow cytometry assays of conjugate 30 (sgc8c-27) with the K562 cell line (left) and the CCRF-CEM cell line are shown in FIGS. 26A and 26B, respectively. Random aptamer sequences conjugated to 27 to create LIB-27 were used as negative control. […] In Similar manner, flow cytometry analysis of MDA-MB-231 cell, PC3 cell, HEK293 cell and HU1545 cell, FIGS. 27A-27D, respectively, after incubated with 32 (AS1411-29) were conducted. AS1411 aptamer was used as positive control, and random library sequences was used as negative control.
On the technique in general: Flow cytometry measures light scatter and fluorescence of single cells or particles in a stream.

Take `CC(=O)OC[C@H]1O[C@@H]([S-])[C@H](OC(C)=O)[C@@H](OC(C)=O)[C@@H]1OC(C)=O.CCP(CC)CC.[Au+]` [Auranofin]: the “activity against HeLa cells in vitro” value in data set [1] is on record as “highly active”. For the same compound, the “effect against cis-platin resistant cancer cells” value in data set [2] is “effective”. What is called IC50 is the concentration that gives 50% inhibition. With “1-(anthracen-9-ylmethyl)-3-(4-N-sgc8c-aptamer-carbamoylbenzyl) benzo[d]imidazolium gold(I) chloride [complex 27]”, inhibition in the data set with CCRF-CEM cell line was half-maximal at 31.1 ± 2.11 µM (IC50). As for “sgc8c: leukemia-specific aptamer 5′-ATCTAACTGCTGCGCCGCCGGGAAAATACTGTACGGTTAGA-3′ (ATCTAACTGCTGCGCCGCCGGGAAAATACTGTACGGTTAGA; listed as DNA, chemistry not fully specified)”, in the data set with CCRF-CEM cells, the “fluorescence intensity of cells (flow cytometry)” value is reported as “fluorescence intensity increases”.
